Legend:
[1] = tested on: human trabecular meshwork cells; experiment: CLAN formation in cultured human trabecular meshwork cells spread on coated coverslips, immunofluorescence microscopy; assay type: cell-based; conditions: adsorbed substrate on coverslip, cells spread three hours
Description: (§1) Cultured, diploid human trabecular meshwork cells obtained from trabecular meshwork explants were plated on coverslips coated with extracellular matrix materials, including poly-L-lysine (20 nM in PBS), fibronectin (100 nM in PBS), type I collagen (20 nM in PBS), type IV collagen (20 nM in PBS), vitronectin (20 nM in PBS), vascular cell adhesion molecule (VCAM-1, an α4β1 ligand; 20 nM in PBS), fibronectin III7-10 domain (an α5β1 ligand; 20 nM in PBS), fibronectin III12-14 domain (20 nM in PBS), or fibronectin IICS domains (20 nM in PBS), or activating antibodies to β1 (anti-B3B11; Chemicon Int'l, Inc.; Temecula, Calif.; 10 μg/ml), β3 (anti-AP-5; The Blood Center of Southeastern Wisconsin; Milwaukee, Wis.; 8 μg/ml), or α2β1 (anti-JBS2; Chemicon Int'l, Inc.; 6 μg/ml) integrins. In experiments using antibodies as substrates, coverslips were pre-coated with 1:100 unconjugated goat anti-mouse IgG (Jackson Immunoresearch, Inc.; West Grove, Pa.). In some instances, anti-β3 antibodies were used as soluble ligands. […]
CLAN formation was assessed by immunofluorescence microscopy. […] Anti-F-actin was detected using either Alexa 488 conjugated goat anti-rabbit IgG or Alexa 488 conjugated donkey anti-rabbit IgG. All monoclonal antibodies were detected using Alexa 546 conjugated goat anti-mouse IgG.

[2] = tested on: trabecular meshwork cells; experiment: CLAN formation in trabecular meshwork cells on fibronectin-coated cover slips with Src kinase inhibitor; assay type: cell-based, human; conditions: PP2 20 μM
Description: as §1
CLAN formation was assessed by immunofluorescence microscopy. […] Anti-F-actin was detected using either Alexa 488 conjugated goat anti-rabbit IgG or Alexa 488 conjugated donkey anti-rabbit IgG. All monoclonal antibodies were detected using Alexa 546 conjugated goat anti-mouse IgG. […]

| Compound | CLAN formation, % of the cells [1] [%] | CLAN formation, % of cells ([2]; absence of soluble anti-β3, control cells 10%) [%] | CLAN formation, % of cells ([2]; presence of soluble anti-β3, control cells 30%) [%] |
| --- | --- | --- | --- |
| fibronectin | 13 |  |  |
| CC(C)(C)n1nc(-c2ccc(Cl)cc2)c2c(N)ncnc21 [PP2] |  | 0 | 1 |

Source: patent publication US8152784B2, “Method for treating or preventing steroid-induced glaucoma” (Wisconsin Alumni Research Foundation, priority 2005, dated 2012)
